Measurements: US9133187B2, “Serine/threonine kinase inhibitors” (ARRAY BIOPHARMA INC., priority 2011, dated 2015)

Tests used:
[1] = tested on: HCT116 cells; test: Cell Proliferation/Viability Assay (Cell Titer-Blue, 72 h); type: cell-based; details: Homo sapiens, HCT-116, 3-day (72-hour) incubation
Protocol: The cytotoxic or cytostatic activity of formula I exemplary compounds was measured by: establishing a proliferating mammalian tumor cell line in a cell culture medium, adding a formula I compound, culturing the cells for a period from about 6 h to about 5 d; and measuring cell viability (Example 78). Cell-based in vitro assays were used to measure viability, i.e. proliferation (IC50), cytotoxicity (EC50).
Viable cells after a 3-day (72-hour) incubation with ERK compounds were quantified using the Cell Titer-Blue Cell Viability Assay from Promega.
Materials and Methods: HCT116 cells were plated in 96 well micro-plates at a density of 1,000 cells/well. The cells were allowed to attach to micro-plate overnight at 37° C./5% CO2. After overnight attachment, diluted compounds were then added to the cells at a final concentration of 0.5% DMSO. After 3 days (72 hours) at 37° C./5% CO2, the number of viable cells was determined using the Cell Titer-Blue Cell Viability Assay from Promega. Briefly, Cell Titer-Blue reagent were added to the cells and incubated for 1 hour. Fluorescense (560 nmexcitation/590 nmemission) was then read using a fluorescence micro-plate reader. Background from high concentration ERK-inhibited wells was subtracted. Representative date is in TABLE III (infra).

[2] = target: human ERK-2 (Mitogen Activated Kinase 1) (Homo sapiens (Human), UniProt P28482); test: ERK-2 Enzymatic Assay; type: biochemical; details: 5 nM ERK-2, 25 μM ATP, Omnia peptide S/T17; read-out: ERK Inhibition IC50
Method in brief: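 Recombinant N-terminal 6-His human ERK-2 (aa 8-360, E. coli) with fluorescent Omnia peptide S/T17 substrate, ambient temperature, read kinetically every 50 s for ~30 min (Ex 340/Em 495 nm). Linear rates converted to percent of control; IC50 from four-parameter fit.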

[3] = tested on: PMA-stimulated P90RSK(Ser380) phosphorylation in HepG2 cells; test: Cellular P90RSK(Ser380) Phosphorylation Assay; type: cell-based; details: Homo sapiens, 1.5 h compound incubation, PMA stimulation, pP90RSK(Ser380) normalized to GAPDH, read-out: Cell Assay IC50
Method in brief: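 HepG2 cells were pretreated with compound (0.5% DMSO final) for 1.5 h, then stimulated with PMA 100 ng/mL for 30 min at 37° C. Fixed, permeabilized cells were immunostained for pP90RSK(Ser380) and GAPDH. The two-channel infrared fluorescence was read, and the phospho signal was normalized to GAPDH.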

human ERK-2 (Mitogen Activated Kinase 1), sequence (P28482 8-360): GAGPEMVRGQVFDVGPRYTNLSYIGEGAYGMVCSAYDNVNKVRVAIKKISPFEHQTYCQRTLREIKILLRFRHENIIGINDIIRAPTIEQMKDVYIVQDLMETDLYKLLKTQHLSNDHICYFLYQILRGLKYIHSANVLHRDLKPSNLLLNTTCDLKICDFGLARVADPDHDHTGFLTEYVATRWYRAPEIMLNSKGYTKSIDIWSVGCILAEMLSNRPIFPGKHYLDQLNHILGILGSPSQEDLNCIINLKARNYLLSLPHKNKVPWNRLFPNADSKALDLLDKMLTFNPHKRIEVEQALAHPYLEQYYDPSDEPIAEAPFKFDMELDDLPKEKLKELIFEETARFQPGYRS

Compound | IC50 [1] | IC50 [2] | IC50 [3]
CC(C)Nc1ncc2c(n1)CN(C(=O)N[C@H](CCC#N)c1ccc(Cl)c(Cl)c1)CC2 [Compound I-104, (R)—N-(3-cyano-1-(3,4-dichlorophenyl)propyl)-2-(isopropylamino)-5,6-dihydropyrido[3,4-d]pyrimidine-7(8H)-carboxamide] | 1600 nM | 2.2 nM | 58.6 nM
O=C(NCc1cc2ccccc2[nH]1)N1CCc2cnc(NC3CCOCC3)nc2C1 [Compound I-114, N-((1H-indol-2-yl)methyl)-2-(tetrahydro-2H-pyran-4-ylamino)-5,6-dihydropyrido[3,4-d]pyrimidine-7(8H)-carboxamide] | 1500 nM | 23.2 nM | 25.4 nM
C[C@@H](CO)Nc1cc2c(cn1)CCN(C(=O)N[C@H](C)c1ccc(Cl)c(Cl)c1)C2 [Compound I-149, N—((R)-1-(3,4-dichlorophenyl)ethyl)-7-((S)-1-hydroxypropan-2-ylamino)-3,4-dihydro-2,6-naphthyridine-2(1H)-carboxamide] | 4100 nM | 3 nM | 75.7 nM

The next molecules have a lower IC50 [1] than those just listed; values first:

IC50 [1] | IC50 [2] | Compound | IC50 [3]
1400 nM | 2.7 nM | C[C@@H](NC(=O)N1CCc2cnc(N[C@H]3CC[C@H](O)C3)nc2C1)c1ccc(C(F)(F)F)c(F)c1 [Compound I-52, N—((R)-1-(3-fluoro-4-(trifluoromethyl)phenyl)ethyl)-2-((1S,3S)-3-hydroxycyclopentylamino)-5,6-dihydropyrido[3,4-d]pyrimidine-7(8H)-carboxamide] | 57 nM
557 nM | 1.6 nM | CC(C)Nc1ncc2c(n1)CN(C(=O)N[C@@H]1CN(C)C[C@H]1c1ccc(C(F)(F)F)c(F)c1)CC2 [Compound I-120, N-((3S,4R)-4-(3-fluoro-4-(trifluoromethyl)phenyl)-1-methylpyrrolidin-3-yl)-2-(isopropylamino)-5,6-dihydropyrido[3,4-d]pyrimidine-7(8H)-carboxamide] | 37.8 nM
47.5 nM | 2.3 nM | CN1C[C@@H](NC(=O)N2CCc3cnc(NC4CCOCC4)nc3C2)[C@H](c2ccc(Cl)c(F)c2)C1 [Compound I-124, N-((3S,4R)-4-(4-chloro-3-fluorophenyl)-1-methylpyrrolidin-3-yl)-2-(tetrahydro-2H-pyran-4-ylamino)-5,6-dihydropyrido[3,4-d]pyrimidine-7(8H)-carboxamide] | 5.95 nM
